Data taken from patent US6444670B2 (Wyeth, priority 1998, dated 2002).

Columns and labels:
diabetic (ob/ob) mice = test: Blood glucose lowering in diabetic (ob/ob) mice; assay type: in vivo, mouse; conditions: for % Change Glucose from Vehicle: plasma glucose
From the text: The procedures used and results obtained are briefly described below.
The non-insulin dependent diabetic (NIDDM) syndrome can be typically characterizes by obesity, hyperglycemia, abnormal insulin secretion, hyperinsulinemia and insulin resistance.
In each test procedure, mice [Male or female ob/ob (C57 B1/6J) and their lean litermates (ob/+ or +/+, Jackson Laboratories) ages 2 to 5 months (10 to 65 g)] of a similar age were randomized according to body weight into 4 groups of 10 mice. The mice were housed 5 per cage and are maintained on normal rodent chow with water ad libitum. Mice received test compound daily by gavage (suspended in 0.5 ml of 0.5% methyl cellulose); dissolved in the drinking water; or admixed in the diet. The dose of compounds given ranges from 2.5 to 200 mg/kg body weight/day. The dose is calculated based on the fed weekly body weight and is expressed as active moiety. […] Control mice received vehicle only.
On the morning of Day 4, 7 or 14 two drops of blood (approximetly 50 ul) were collected into sodium fluoride containing tubes either from the tail vein or after decapitation. For those studies in which the compound was administered daily by gavage the blood samples were collected 0 and 4 hours after compound administration. The plasma was isolated by centrifugation and the concentration of glucose is measured enzymatically on an Abbott V. P. Analyzer.
For each mouse, the percentage change in plasma glucose on Day 4, 7 or 14 is calculated relative to the mean plasma glucose of the vehicle treated mice. Analysis of variance followed by Dunett's Comparison Test (one-tailed) are used to estimate the significant difference between the plasma glucose values from the control group and the individual compound treated groups (CMS SAS Release 5.18).

[1] = target: T1, Human recombinant PTP1B (hPTP1B) (Homo sapiens, UniProt P18031); assay type: biochemical
T1 construct: made in house
T1 sequence (P18031 1-435): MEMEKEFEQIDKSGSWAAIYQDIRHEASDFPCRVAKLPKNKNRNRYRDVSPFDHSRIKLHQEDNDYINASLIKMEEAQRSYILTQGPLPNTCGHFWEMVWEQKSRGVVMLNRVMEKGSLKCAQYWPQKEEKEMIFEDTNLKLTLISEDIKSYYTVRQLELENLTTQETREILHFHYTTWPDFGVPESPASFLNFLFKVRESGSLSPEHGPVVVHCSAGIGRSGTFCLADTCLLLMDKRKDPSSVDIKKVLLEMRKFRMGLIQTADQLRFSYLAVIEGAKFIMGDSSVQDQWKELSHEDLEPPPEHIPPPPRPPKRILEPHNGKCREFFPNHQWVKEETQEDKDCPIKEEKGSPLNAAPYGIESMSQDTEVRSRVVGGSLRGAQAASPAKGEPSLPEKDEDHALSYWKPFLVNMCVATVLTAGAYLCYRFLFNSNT

[2] = test system: rat hepatic microsomal PTPases; conditions: 50 μM compound
[3] = dose 25 mg/Kg, (a) = no significant activity (p < 0.05) at this dose
[4] = dose 10 mg/Kg, (a) = no significant activity (p < 0.05) at this dose

SMILES | melting point [°C] | IC50 [1] [nM] | % Change Glucose from Vehicle (diabetic (ob/ob) mice; [3]) | % Change from Control [2] [%] | further results
CC1(COc2ccc(CC3SC(=O)NC3=O)cc2)CCCCC1 (centres unmarked) [Ciglitazone, 5-(4-(1-methylcyclohexylmethoxy)benzyl)-2,4-dione, reference compound] |  |  |  |  | % Change Insulin from Vehicle (diabetic (ob/ob) mice; dose 100 mg/Kg): −39 ^ %; % Change Glucose from Vehicle (diabetic (ob/ob) mice; dose 100 mg/Kg): −43 ^ %
CC(=O)Oc1ccc(-c2c3ccccc3cc3sc(C)c(C)c23)cc1 [Example 6, Acetic Acid 4-(2,3-dimethyl-naphtho[2,3-b]thiophen-4-yl)-phenyl ester] | 147 to 150 |  |  |  | 
CC(=O)Oc1ccc(-c2c3ccccc3c(Br)c3sc(C)c(C)c23)cc1 [Example 7, Acetic Acid 4-(9-bromo-2,3-dimethyl-naphtho[2,3-b]thiophen-4-yl)-phenyl ester] | 190 to 191 |  |  |  | 
Cc1sc2c(Br)c3ccccc3c(-c3ccc(O)cc3)c2c1C [Example 8, 4-(9-Bromo-2,3-dimethyl-naphtho[2,3-b]thiophen-4-yl)-phenol] | 165 to 168 |  |  |  | 
Cc1sc2c(I)c3ccccc3c(-c3ccc(OS(C)(=O)=O)cc3)c2c1C [Example 11, Methanesulfonic acid 4-(9-iodo-2,3-dimethyl-naphtho[2,3-b]thiophen-4-yl)-phenyl ester] | 212 to 213 |  |  |  | 
Cc1sc2c(Sc3ccccc3)c3ccccc3c(-c3cc(Br)c(O)c(Br)c3)c2c1C [Example 13, 2,6-Dibromo-4-(2,3-dimethyl-9-phenylsulfanyl-naphtho[2,3-b]thiophen-4-yl)-phenol] | 237 to 239 |  |  |  | 
COC(=O)[C@@H](Cc1ccccc1)Oc1c(Br)cc(-c2c3ccccc3c(Br)c3sc(C)c(C)c23)cc1Br [Example 28, (R)-2-[2,6-Dibromo-4-(9-bromo-2,3-dimethyl-naphtho[2,3-b]thiophen4-yl)-phenoxy]3-phenyl-propionic acid methyl ester] | 174 to 175 |  |  |  | 
Cc1sc2c(Br)c3ccccc3c(-c3cc(Br)c(O[C@H](Cc4ccccc4)C(=O)O)c(Br)c3)c2c1C [Example 29, (R)-2-[2,6-Dibromo-4-(9-bromo-2,3-dimethyl-naphtho[2,3-b]thiophen-4-yl)-phenoxy]3-phenyl-propionic acid] |  | 115 | −38.18 ^ % | −83.54 | % Change Insulin from Vehicle (diabetic (ob/ob) mice; dose 10 mg/Kg): −48.11 ^ %; % Change Insulin from Vehicle (diabetic (ob/ob) mice; [3]): −80.50 ^ %; % Change Insulin from Vehicle (diabetic (ob/ob) mice; dose 100 mg/Kg): −89.59 ^ %; % Change Glucose from Vehicle (diabetic (ob/ob) mice; [4]): −18.6 (a) %; % Change Glucose from Vehicle (diabetic (ob/ob) mice; dose 100 mg/Kg): −48.63 ^ %
Cc1sc2c(Br)c3ccccc3c(-c3cc(Br)c(O[C@H](CCc4ccccc4)C(=O)O)c(Br)c3)c2c1C [Example 32, (R)-2-[2,6-Dibromo-4-(9-bromo-2,3-dimethyl-naphtho[2,3-b]thiophen-4-yl)-phenoxy]-4-phenyl-butyric acid] |  | 60 | −15.68 (a) % | −89.41 | % Change Insulin from Vehicle (diabetic (ob/ob) mice; [3]): −48.35 ^ %
Cc1sc2c(Sc3ccccc3)c3ccccc3c(-c3cc(Br)c(O[C@H](Cc4ccccc4)C(=O)O)c(Br)c3)c2c1C [Example 33, (R)-2-[2,6-dibromo-4-(2,3-dimethyl-9-phenylsulfanyl-naphtho[2,3-b]thiophen-4-yl)-phenoxy]-3-phenyl-propionic acid] |  | 29 | −21.10 (a) % | −61.92 | % Change Insulin from Vehicle (diabetic (ob/ob) mice; [3]): −39.3 ^ %
Cc1c(CN2CCOCC2)sc2c(Br)c3ccccc3c(-c3cc(Br)c(OC(Cc4ccccc4)C(=O)O)c(Br)c3)c12 (centres unmarked) [Example 35, 2-[2,6-Dibromo-4-(9-bromo-3-methyl-2-morpholin-4-ylmethyl-naphtho[2,3-b]thiophen-4-yl)-phenoxy]-3-phenyl-propionic acid] |  | 273 | −25.58 ^ % | −58.85 | % Change Insulin from Vehicle (diabetic (ob/ob) mice; [3]): −2.98 (a) %
Cc1sc2c(Br)c3ccccc3c(-c3cc(Br)c(O)c(C(C)C)c3)c2c1C [Example 39, 2-Bromo-4-(9-bromo-2,3-dimethyl-naphtho[2,3-b]thiophen-4-yl)-6-isopropyl-phenol] | 157 to 162 | 1740 |  |  | 
Cc1sc2c(Br)c3ccccc3c(-c3cc(Br)c(O[C@H](Cc4ccccc4)C(=O)O)c(C(C)C)c3)c2c1C [Example 40, (R)-2-[2-Bromo-4-(9-bromo-2,3-dimethyl-naphtho[2,3-b]thiophen-4-yl)-6-isopropyl-phenoxy]-3-phenyl-propionic acid] |  | 110 |  | −83.88 | % Change Insulin from Vehicle (diabetic (ob/ob) mice; dose 100 mg/Kg): −90.80 ^ %; % Change Glucose from Vehicle (diabetic (ob/ob) mice; dose 100 mg/Kg): −28.20 ^ %
CCC(C)c1cc(-c2c3ccccc3c(Br)c3sc(C)c(C)c23)cc(Br)c1O[C@H](Cc1ccccc1)C(=O)O (stereo partly drawn) [Example 42, (R)-2-[2-Bromo-4-(9-bromo-2,3-dimethyl-naphtho[2,3-b]thiophen-4-yl)-6-sec-butyl-phenoxy]-3-phenyl-propionic acid] |  | 89 | −32.5 ^ % | −63.41 | 
CCc1cc(-c2c3ccccc3c(Br)c3sc(C)c(C)c23)cc(Br)c1O[C@H](Cc1ccccc1)C(=O)O [Example 43, (R)-2-[2-Bromo-4-(9-bromo-2,3-dimethyl-naphtho[2,3-b]thiophen-4-yl)-6-ethyl-phenoxy]-3-phenyl-propionic acid] |  | 171 | −45.2 ^ % | −78.84 | 
Cc1sc2c(Br)c3ccccc3c(-c3ccc(O[C@H](Cc4ccccc4)C(=O)O)c(C(C)C)c3)c2c1C [Example 44, (R)-2-[4-(9-Bromo-2,3-dimethyl-naphtho[2,3-b]thiophen-4-yl)-6-isopropyl-phenoxy]-3-phenyl-propionic acid] |  | 237 | −17.2 ^ % | −68.50 | 
Cc1cc(-c2c3ccccc3cc3sc(C)c(C)c23)cc(C)c1O[C@H](Cc1ccccc1)C(=O)O [Example 46, (R)-2-[4-(2,3-Dimethyl-naphtho[2,3-b]thiophen-4-yl)-2,6-dimethyl-phenoxy]-3-phenyl-propionic acid] |  | 1190 |  | −91.00 | 
Cc1sc2c(Br)c3ccccc3c(-c3ccc(O[C@H](Cc4ccccc4)C(=O)O)c(C4CCCC4)c3)c2c1C [Example 47] |  | 95 |  | −68.48 | 
Cc1cc(-c2c3ccccc3c(Br)c3sc(C)c(C)c23)cc(C)c1O[C@H](Cc1ccccc1)C(=O)O [Example 49, (R)-2-[4-(9-Bromo-2,3-dimethyl-naphtho[2,3-b]thiophen-4-yl)-2,6-dimethyl-phenoxy]-3-phenyl-propionic acid] |  |  |  | −89.36 | % Change Glucose from Vehicle (diabetic (ob/ob) mice; [4]): −35.1 ^ %
Cc1sc2cc3ccccc3c(-c3cc(C(C)C)c(O[C@H](Cc4ccccc4)C(=O)O)c(C(C)C)c3)c2c1C [Example 50, (R)-2-[4-(2,3-Dimethyl-naphtho[2,3-b]thiophen-4-yl)-2,6-diisopropyl-phenoxy]-3-phenyl-propionic acid] |  | 457 |  | −81.27 | 
Cc1sc2c(Br)c3ccccc3c(-c3ccc(O[C@H](Cc4ccccc4)C(=O)O)c(F)c3)c2c1C [Example 52, (R)-2-[4-(9-Bromo-2,3-dimethyl-naphtho[2,3-b]thiophen-4-yl)-2-fluoro-phenoxy]-3-phenyl-propionic acid] |  | 287 |  | −87.66 | 
COc1c(N)cc(-c2c3ccccc3c(Br)c3sc(C)c(C)c23)cc1Br [Example 58, 3-Bromo-5-(9-bromo-2,3-dimethyl-naphtho[2,3-b]thiophen-4-yl)-2-methoxy-phenylamine] | 198 to 200 |  |  |  | 
CCc1cc(-c2c3ccccc3c(Br)c3sc(C)c(C)c23)cc(CC)c1O[C@H](Cc1ccccc1)C(=O)O [Example 61, (R)-2-[4-(9-Bromo-2-,3-dimethyl-naphtho[2,3-b]thiophen-4-yl)-2,6-diethyl-phenoxy]-3-phenyl-propionic acid] |  | 164 |  |  | % Change Glucose from Vehicle (diabetic (ob/ob) mice; dose 10 mg/Kg, measured at 0 hour): −32.8 (c) %
